Target: hSA (Homo sapiens, UniProt P02768)
Test: hSA binding assay (hSA-coated microtiter plate, streptavidin-polyHRP/ABTS, OD 405 nm)
Details: for Bmax: given only for compounds with an Exp 2 value
Method: hSA binding assay. Microtiter 96 well plate is coated, overnight at 4° C., using […] of a solution of hSA in PBS ([…]). Plate is washed with PBS and blocked, for 1 hours, using 150 ml, per well, of a 10% solution of Tween 20 in water. After 1 hour the wells are washed with PBS. The hSA binders tested are dissolved in PBS, 100 ml of the tested solutions are then added in the well and incubated for 2 hours. After 2 hours, the solution are discarded and the wells are washed using PBS, 0.1% Tween 20. 100 ml of a solution of streptavidin-polyHRP in PBS 1.375% casein is added to the wells and incubated for 1 more hours. Finally wells are washed with PBS, 0.1% Tween 20, and 100 ml ABTS in phosphate-citrate buffer with sodium perborate is added. After a few minutes OD are read at 405 nm.
A plurality of compounds according to the invention were prepared. All of the compounds contained the Cys-Pro-Cys moiety. These compounds and an assay control were tested using the above procedure. Some compounds were tested twice (Exp 1 and Exp 2).

hSA, sequence (P02768 25-609): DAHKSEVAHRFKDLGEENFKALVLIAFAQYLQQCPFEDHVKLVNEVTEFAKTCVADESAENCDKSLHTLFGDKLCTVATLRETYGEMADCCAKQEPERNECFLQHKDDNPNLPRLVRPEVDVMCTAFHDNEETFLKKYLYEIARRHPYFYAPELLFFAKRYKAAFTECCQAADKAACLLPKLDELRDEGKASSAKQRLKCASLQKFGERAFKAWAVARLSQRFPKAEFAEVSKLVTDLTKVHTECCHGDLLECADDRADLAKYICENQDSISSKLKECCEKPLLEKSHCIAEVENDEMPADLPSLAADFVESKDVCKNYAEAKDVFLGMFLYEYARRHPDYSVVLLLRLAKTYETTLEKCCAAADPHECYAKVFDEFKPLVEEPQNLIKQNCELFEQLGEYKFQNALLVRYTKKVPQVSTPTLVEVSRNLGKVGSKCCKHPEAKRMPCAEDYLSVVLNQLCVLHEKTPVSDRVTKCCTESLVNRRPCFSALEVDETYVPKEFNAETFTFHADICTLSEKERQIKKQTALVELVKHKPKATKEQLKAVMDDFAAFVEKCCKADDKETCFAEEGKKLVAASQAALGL

Sequence | Binding, Exp 1 | Binding, Exp 2 | Bmax
RLIEDICPCLK [Compound 66, RLIEDI-LK, "-" represents cysteine-proline-cysteine] | 6.227 | – | –
KLIEYICPCLW [Compound 53, KLIEYI-LW, "-" represents cysteine-proline-cysteine] | 0.3109 | – | –
KLIEDICPCLK [Compound 21, KLIEDI-LK, "-" represents cysteine-proline-cysteine] | 0.06947 | – | –
RLIEDICPCLH [Compound 63, RLIEDI-LH, "-" represents cysteine-proline-cysteine] | 1.877 | – | –
KLIEDACPCLW [Compound 39, KLIEDA-LW, "-" represents cysteine-proline-cysteine] | 0.153 | – | –
KLIEDFCPCLW [Compound 44, KLIEDF-LW, "-" represents cysteine-proline-cysteine] | 0.1836 | – | –
KLQEDICPCLW [Compound 31, KLQEDI-LW, "-" represents cysteine-proline-cysteine] | 0.1033 | – | –
KLISDICPCLW [Compound 3, KLISDI-LW, "-" represents cysteine-proline-cysteine] | 0.02504 | – | –
KLIEDICPCLE [Compound 49, KLIEDI-LE, "-" represents cysteine-proline-cysteine] | 0.2709 | – | –
RLIEDECPCLW [Compound 58, RLIEDE-LW, "-" represents cysteine-proline-cysteine] | 0.8196 | – | –
RLIEDICPCLW [Compound 50, RLIEDI-LW, "-" represents cysteine-proline-cysteine] | 0.2855 | 0.3359 | 1.14
RLIEDICPCLQ [Compound 65, RLIEDI-LQ, "-" represents cysteine-proline-cysteine] | 5.789 | – | –
KLIEDICPCTW [Compound 35, KLIEDI-TW, "-" represents cysteine-proline-cysteine] | 0.1327 | – | –
RFIEDICPCLW [Compound 8, RFIEDI-LW, "-" represents cysteine-proline-cysteine] | 0.04142 | 0.1971 | 1.136
KFIEDICPCLW [Compound 13, KFIEDI-LW, "-" represents cysteine-proline-cysteine] | 0.04979 | 0.4961 | 1.198
LKIKDICPCLW [Compound 94, LKIKDI-LW, "-" represents cysteine-proline-cysteine] | – | 0.2987 | 1.253
REIEDICPCLW [Compound 96, REIEDI-LW, "-" represents cysteine-proline-cysteine] | – | 0.2479 | 0.8746
RLIESICPCLW [Compound 61, RLIESI-LW, "-" represents cysteine-proline-cysteine] | 1.238 | – | –
KLIEEICPCLW [Compound 28, KLIEEI-LW, "-" represents cysteine-proline-cysteine] | 0.09642 | – | –
KIIEDICPCLW [Compound 62, KIIEDI-LW, "-" represents cysteine-proline-cysteine] | 1.415 | 0.2342 | 0.8075
KLIYDICPCLW [Compound 29, KLIYDI-LW, "-" represents cysteine-proline-cysteine] | 0.1014 | 0.09262 | 0.7912
KLIDDICPCLW [Compound 34, KLIDDI-LW, "-" represents cysteine-proline-cysteine] | 0.1237 | – | –

Sequence | Binding, Exp 1 | Binding, Exp 2 | Bmax
RLIVDICPCLW [Compound 12, RLIVDI-LW, "-" represents cysteine-proline-cysteine] | 0.04895 | 0.2036 | 1.002
KLIVDICPCLW [Compound 95, KLIVDI-LW, "-" represents cysteine-proline-cysteine] | – | 0.1395 | 1.19
KEIEDICPCLW [Compound 93, KEIEDI-LW, "-" represents cysteine-proline-cysteine] | – | 0.257 | 1.425
RLIEVICPCLW [Compound 37, RLIEVI-LW, "-" represents cysteine-proline-cysteine] | 0.1503 | – | –
RLVEDICPCLW [Compound 20, RLVEDI-LW, "-" represents cysteine-proline-cysteine] | 0.06407 | – | –
KLIADICPCLW [Compound 46, KLIADI-LW, "-" represents cysteine-proline-cysteine] | 0.2126 | 0.1074 | 1.077
RTIEDICPCLW [Compound 99, RTIEDI-LW, "-" represents cysteine-proline-cysteine] | – | 0.1598 | 0.6151
KLIEDICPCQW [Compound 48, KLIEDI-QW, "-" represents cysteine-proline-cysteine] | 0.2445 | – | –
KLIEDICPCVW [Compound 15, KLIEDI-VW, "-" represents cysteine-proline-cysteine] | 0.05545 | – | –
RLTEDICPCLW [Compound 7, RLTEDI-LW, "-" represents cysteine-proline-cysteine] | 0.03902 | – | –
RLIEDACPCLW [Compound 38, RLIEDA-LW, "-" represents cysteine-proline-cysteine] | 0.1522 | – | –
KLFEDICPCLW [Compound 33, KLFEDI-LW, "-" represents cysteine-proline-cysteine] | 0.1213 | – | –
KTIEDICPCLW [Compound 22, KTIEDI-LW, "-" represents cysteine-proline-cysteine] | 0.06947 | 0.1476 | 1.427
RLIKDICPCLW [Compound 36, RLIKDI-LW, "-" represents cysteine-proline-cysteine] | 0.1404 | – | –
RVIEDICPCLW [Compound 19, RVIEDI-LW, "-" represents cysteine-proline-cysteine] | 0.06391 | 0.2112 | 1.089
RQIEDICPCLW [Compound 2, RQIEDI-LW, "-" represents cysteine-proline-cysteine] | 0.02306 | 0.2243 | 1.232
RLISDICPCLW [Compound 98, RLISDI-LW, "-" represents cysteine-proline-cysteine] | – | 0.2247 | 1.301
RLIEDICPCQW [Compound 60, RLIEDI-QW, "-" represents cysteine-proline-cysteine] | 1.193 | – | –
RLIEEICPCLW [Compound 57, RLIEEI-LW, "-" represents cysteine-proline-cysteine] | 0.7026 | – | –
KLVEDICPCLW [Compound 41, KLVEDI-LW, "-" represents cysteine-proline-cysteine] | 0.1635 | – | –
KLTEDICPCLW [Compound 24, KLTEDI-LW, "-" represents cysteine-proline-cysteine] | 0.07352 | – | –
